ChEMBL document CHEMBL1125011, “Potential antimitotic agents. Synthesis of some ethyl benzopyrazin-7-ylcarbamates, ethyl pyrido[3,4-b]pyrazin-7-ylcarbamates, and ethyl pyrido[3,4-e]-as-triazin-7-ylcarbamates” (J Med Chem, 1990)

Assays:
[1] = system: L1210; test: (§1) Concentration that causes a mitotic index of 0.5 for cultured lymphoid leukemia L1210 cells was determined; type: functional, Mus musculus
[2] = system: L1210; test: Concentration required to inhibit 50% proliferation of cultured lymphoid leukemia L1210 cells was measured; type: functional, cell-based; details: Mus musculus
[3] = as §1; type: functional, Mus musculus

| IC50 [2] [µM] | SMILES | MI0.5 [1] [µM] | MI0.5 [3] [µM] |
| --- | --- | --- | --- |
| > 100 | CCOC(=O)c1cc(N)c2c(c1)NCC(c1ccccc1)=N2 | >10 | – |
| 0.042 | CCOC(=O)Nc1cc2nc(O)c(-c3ccccc3)nc2c(N)n1 | 0.022 | – |
| > 10 | CCOC(=O)Nc1cc2nnc(-c3ccccc3)nc2c(N)n1 | – | – |
| 0.75 | COC(=O)Nc1cc(N)c2nc(-c3ccccc3)c(O)nc2c1 | – | 1.9 |
| > 100 | COC(=O)Nc1cc(N)c2nc(-c3ccccc3)cnc2c1 | – | – |
| 0.3 | CCOC(=O)Nc1cc2ncc(-c3ccccc3)nc2c(N)n1 | – | – |
| 24 | COC(=O)Nc1cc(N)c2c(c1)NCC(c1ccccc1)=N2 | – | – |
| > 100 | CCOC(=O)c1cc(N)c2nc(-c3ccccc3)cnc2c1 | >10 | – |
| > 10 | CCOC(=O)Nc1cc2c(c(N)n1)NC(c1ccccc1)=NN2 | – | – |
| > 30 | CCOC(=O)Nc1cc2nc(N)c(-c3ccccc3)nc2c(N)n1 | – | – |
| – | CCOC(=O)Nc1cc2c(c(N)n1)N=C(c1ccccc1)CN2 | – | 0.0028 |
